Broadly, the Kd is the concentration at which binding is half-saturated.

Each structure is given as a SMILES string.

The assay concerns the target wild-type cap-binding domain of PB2 (Influenza A virus, UniProt P31345, R389K). On the set-up: species or system Influenza A/Victoria/3/1975(H3N2).

`Nc1nc2c(ncn2[C@@H]2O[C@H](COP(=O)(O)OP(=O)(O)OP(=O)(O)O)[C@@H](O)[C@H]2O)c(=O)[nH]1` [GTP] displayed a Kd of 1020 ± 100 µM.

Turning to `C[n+]1cn([C@@H]2O[C@H](COP(=O)(O)OP(=O)(O)OP(=O)(O)O)[C@@H](O)[C@H]2O)c2nc(N)[nH]c(=O)c21` [m^7GTP, 7-methyl-guanosine triphosphate], binding was put at a Kd of 177 ± 34 µM.

(Values after patent publication US9045248B2 (priority 2007, dated 2015).)
